Assay results published in patent US20090197967A1, “COMPOSITIONS AND METHODS FOR TREATMENT OF OPHTHALMIC DISEASES AND DISORDERS” (priority 2006, published 2009).

How the values were obtained:
[1] = target: T1, visual cycle trans-cis isomerohydrolase (isomerase) (Bos taurus, UniProt Q28175); experiment: Isomerase reaction: inhibition of isomerase by retinylamine derivative compounds (bovine RPE microsomes, HPLC read-out); type: biochemical; conditions: 5 min preincubation at 37° C., 10 μM all-trans-retinol, 6 μM apo-CRALBP, 30 minutes
T1 construct: Bovine Retinal Pigment Epithelium (RPE) microsome membranes were the source of visual cycle trans-cis isomerohydrolase (isomerase); from tissue; host or cells: bovine retinal pigment epithelium (RPE) microsome membranes; CRALBP made in E. coli
T1 sequence (Q28175 2-533 limits assumed): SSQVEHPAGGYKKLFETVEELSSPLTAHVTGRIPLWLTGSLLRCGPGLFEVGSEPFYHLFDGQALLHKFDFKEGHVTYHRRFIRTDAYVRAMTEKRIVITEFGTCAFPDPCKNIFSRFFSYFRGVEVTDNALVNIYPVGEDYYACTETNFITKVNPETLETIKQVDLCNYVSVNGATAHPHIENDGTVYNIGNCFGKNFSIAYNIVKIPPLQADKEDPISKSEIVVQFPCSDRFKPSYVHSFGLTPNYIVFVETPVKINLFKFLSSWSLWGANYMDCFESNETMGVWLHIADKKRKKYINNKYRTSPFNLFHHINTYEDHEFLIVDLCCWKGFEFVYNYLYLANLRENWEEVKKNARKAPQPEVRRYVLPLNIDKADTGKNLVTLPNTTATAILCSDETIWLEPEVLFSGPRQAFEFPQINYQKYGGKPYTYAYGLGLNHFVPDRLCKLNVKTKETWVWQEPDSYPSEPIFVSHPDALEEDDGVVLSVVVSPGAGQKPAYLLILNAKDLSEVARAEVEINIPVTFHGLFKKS
Description: The capability of several retinylamine compounds to inhibit the activity of visual cycle trans-cis isomerohydrolase (isomerase) was determined.
Isomerase and LRAT reaction—The isomerase reaction was performed essentially as described previously (Stecher et al., J Biol Chem 274:8577-85 (1999); see also Golczak et al., supra). Bovine Retinal Pigment Epithelium (RPE) microsome membranes were the source of visual cycle trans-cis isomerohydrolase (isomerase).
RPE microsome membrane extracts may be purchased or prepared according to methods practiced in the art and stored at −80° C. Crude RPE microsome extracts were thawed in a 37° C. water bath, and then immediately placed on ice. 50 ml crude RPE microsomes were placed into a 50 ml Teflon-glass homogenizer (Fisher Scientific, catalog no. 0841416M) on ice, powered by a hand-held DeWalt drill, and homogenized ten times up and down on ice under maximum speed. This process was repeated until the crude RPE microsome solution was homogenized. The homogenate was then subjected to centrifugation (50.2 Ti rotor (Beckman, Fullerton, Calif.), 13,000 RPM; 15360 Rcf) for 15 minutes at 4° C. The supernatant was collected and subjected to centrifugation a5 42,000 RPM (160,000 Rcf, 50.2 Ti rotor) for 1 hour at 4° C. The supernatant was removed, and the pellets were suspended in 12 ml (final volume) cold 10 mM MOPS buffer, pH 7.0. The resuspended RPE membranes in 5 ml aliquots were homogenized in a glass-to-glass homogenizer (Fisher Scientific, catalog no. K885500-0021) to high homogeneity. Protein concentration was quantified using the BCA protein assay according to the manufacturer's protocol (Pierce, Rockford, Ill.; catalog no. 23227). The homogenized RPE preparations were stored at −80° C.
Recombinant human apo cellular retinaldehyde-binding protein (CRALBP) was cloned and expressed according to standard methods in the molecular biology art (see Crabb et al., Protein Science 7:746-57 (1998); Crabb et al., J. Biol. Chem. 263:18688-92 (1988)). Briefly, total RNA was prepared from confluent ARPE19 cells (American Type Culture Collection, Manassas, Va.), cDNA was synthesized using an oligo(dT)12-18 primer, and then DNA encoding CRALBP was amplified by two sequential polymerase chain reactions (see Crabb et al., J. Biol. Chem. 263:18688-92 (1988); Intres, et al., J. Biol. Chem. 269:25411-18 (1994); GenBank Accession No. L34219.1). The PCR product was sub-cloned into pTrcHis2-TOPO TA vector according to the manufacturer's protocol (Invitrogen Inc., Carlsbad, Calif.; catalog no. K4400-01), and then the sequence was confirmed according to standard nucleotide sequencing techniques. Recombinant 6×His-tagged human CRALBP was expressed in One Shot TOP 10 chemically competent E. coli cells (Invitrogen), and the recombinant polypeptide was isolated from E. coli cell lysates by nickel affinity chromatography using Ni Sepharose XKI 6-20 columns for HPLC (Amersham Bioscience, Pittsburgh, Pa.; catalog no. 17-5268-02). The purified 6×His-tagged human CRALBP was dialyzed against 10 mM bis-tris-Propane (BTP) and analyzed by SDS-PAGE. The molecular weight of the recombinant human CRALBP was approximately 39 kDal.
The isomerase assay was performed in 10 mM BTP buffer, pH 7.5, 1% BSA, containing 1 mM ATP and 6 μM apo-CRALBP (cellular retinaldehyde-binding protein). To investigate inhibition properties of retinylamine derivative compounds, RPE microsomes were preincubated for 5 min in 37° C. with a compound in 10 mM BTP buffer, pH 7.5, 1% BSA, and 1 mM ATP prior to addition of apo-CRALBP and 10 μM all-trans-retinol. Retinylamine derivative compounds were delivered to the reaction mixture in 2 μl ethanol. If the compounds were not soluble in ethanol, DMF was added until the compound was in solution. The same volume of ethanol and/or DMF was added to the control reaction (absence of test compound). […]

RXR = conditions: at micromolar concentrations; cited from earlier work
RAR = conditions: at micromolar concentrations; cited from earlier work

| IC50 [1] [µM] | Compound | interaction with RXR (RXR) | interaction with RAR (RAR) |
| --- | --- | --- | --- |
| 3.1 | CC1=C(/C=C/C(C)=C2C=C/C(=C/CN)CCC/2)C(C)(C)CCC1 [Cmpd 1] | – | – |
| 0.55 | CC1=C(/C=C/C(C)=C2C=C/C(=C/CN)CC/2)C(C)(C)CCC1 [Cmpd 2] | – | – |
| 0.7 | CC1=C(/C=C/C(C)=C/C=C/C(C)=C/CN)C(C)(C)CCC1 [Cmpd 3] | – | – |
| 5.8 | CC1=C(/C=C/C(C)=C/C=C/CN)C(C)(C)CCC1 [Cmpd 4] | – | – |
| 1.7 | CC(=CCCCCN)/C=C/C1=C(C)CCCC1(C)C [Cmpd 5] | – | – |
| 8.4 | CC1=C(/C=C/C(C)=C/CN)C(C)(C)CCC1 [Cmpd 7] | – | – |
| 0.6 | CC1=C(/C=C/C(C)=C/C=C\CCCN)C(C)(C)CCC1 [Cmpd 8] | – | – |
| 6 | CC1=C(/C=C/C(C)=C/C=C/CCCN)C(C)(C)CCC1 [Cmpd 9] | – | – |
| 14 | CC1=C(/C=C/C(C)=C/C=C/CCCCN)C(C)(C)CCC1 [Cmpd 10] | – | – |
| 17 | CC1=C(/C=C/C(C)=C/C=C/C(C)=C/CN)C(C)(C)CCC1OCc1ccccc1 (stereo not drawn) [Cmpd 11] | – | – |
| 25 | CC1=C(/C=C/C(C)=C/C=CCCCCCCN)C(C)(C)CCC1 [Cmpd 12] | – | – |
| 200 | CC1=C(/C=C/C(C)=C/C=C/CCCCCCN)C(C)(C)CCC1 [Cmpd 13] | – | – |
| 80 | CC1=C(/C=C/C(C)N)C(C)(C)CCC1 (stereo not drawn) [Cmpd 14] | – | – |
| – | CC1=C(/C=C/C(C)=C/C=C/C(C)=C/CN)C(C)(C)CCC1 [Ret-NH2, retinylamine] | does not interact | does not interact |
